Assay results taken from patent US6420435B1, “Method for treating gastrointestinal disorders” (priority 1999, dated 2002).

Assays:
[1] = system: inventor with long history of severe heartburn; experiment: Inventor's own use of limonene for severe heartburn; format: in vivo, human; conditions: 500 mg to 1000 mg every other day for 8-20 days
Description: Similar results were obtained on another adult taking 1000 mg every other day as well as on participants of studies discussed in more detail in Examples 1-2.

[2] = system: individuals taking limonene; experiment: Side effects of limonene having at least 98% purity; format: in vivo, human; conditions: limonene having at least a 98% purity
Text: Any conventional distillation method known by those of ordinary skill in the art for obtaining a highly purified form of d-limonene (about 98% pure) may be employed. Example 3 illustrates one preferred distillation method for removing the majority of contaminants.

[3] = In vitro studies on mechanism of action; conditions: suggested mechanism, coating the stomach wall
Text: The present invention is directed to a method for treating gastrointestinal disorders and comprises the oral administration of a therapeutically effective amount of limonene, preferably a purified form of d-limonene (i.e. at least 98%), to a person in need of such treatment. “Limonene” as used herein shall include both d-limonene and 1-limonene. […] The inventor has discovered that oral administration of a therapeutically effective amount of purified, food grade limonene (preferably at least 98% pure d-limonene), taken once daily or once every other day for 2 to 20 days, will alleviate or eliminate entirely the symptoms, both in terms of frequency and severity, of gastrointestinal disorders, such disorders ranging from mild/moderate heartburn and gastric indigestion to severe heartburn or gastro esophageal reflux disorder (GERD).

[4] = system: adults suffering from chronic heartburn or gastroesophagael reflux disorder (GERD); experiment: Initial studies of d-limonene treatment regimen in 19 adults with chronic heartburn or GERD, symptom ratings on a scale of 1-10; format: in vivo, human; conditions: for % of participants (every day regimen) with symptom rating = 1-2: 1 capsule 1000 mg every day; for % of participants (every other day regimen) with symptom rating = 1-2: 1 capsule 1000 mg every other day; for % of all participants with symptom rating = 1-2: 1000 mg d-limonene capsule every day or every other day; for % of all participants with symptom rating = 1-2 / percentage of participants achieving complete relief of symptoms (rating of 1): all participants
Description: Initial studies of the inventive treatment regimen were conducted at different times on 19 adults suffering from chronic heartburn or gastroesophagael reflux disorder (GERD). […] Thirty-seven (37%) of the total participants in these initial studies were male ranging in age from 42 to 73 years (average age=50 years), while sixty-three (63%) of the participants were female ranging in age from 34 to 70 years (average age=43). All of the participants discontinued using their respective treatments of choice (i.e. over-the-counter (OTC) and/or prescription medications) at least one day prior to beginning the inventive treatment regimen. Prior to beginning the treatment regimen, each participant was asked to rate the frequency and severity of his/her gastrointestinal disorder symptoms on a scale of 1-10. For “severity of symptoms,” 1 corresponded to complete relief of symptoms while 10 corresponded to severe, painful symptoms. A rating of 2 would correspond to mild symptoms. For “frequency of symptoms,” 1 corresponded to complete relief of symptoms while 10 corresponded to daily symptoms.
Eleven of the participants were administered 1 capsule of d-limonene every other day for 20 days. Five of the participants were administered 1 capsule of d-limonene every day for 16 to 20 days. Each capsule contained 1000 mg of d-limonene having a purity of from 98.5% to 99.3%.
FIG. 3 is a graph illustrating the percentage of all the participants (i.e. those undergoing the every other day regimen and every day regimen) having a severity rating of 1.

[5] = system: participants suffering from mild/moderate heartburn to severe heartburn/GERD; experiment: Preliminary double-blind placebo study in 13 participants; format: in vivo, human; conditions: 1 capsule with 1 gram of 98% d-limonene, every day/every other day regimens
Description: A preliminary double-blind placebo study was conducted on 13 participants suffering from mild/moderate heartburn to severe heartburn/GERD. Seven participants were administered the product and six were administered a placebo. In the “limonene” group (i.e. 1 capsule containing 1 gram of 98% d-limonene), two participants were administered 1 capsule every day for five days followed by 1 capsule every other day for five days. The remaining “limonene” group participants were administered 1 capsule every other day for 20 days. In the “placebo” group, three participants were administered 1 placebo capsule (i.e. gelatin capsule containing soybean oil) daily for five days, followed by 1 capsule every other day for 5 days. Two participants were administered 1 placebo capsule every other day for 20 days while one participant having severe heartburn was administered 1 placebo capsule twice a day for 5 days, followed by 1 capsule every day for 5 days, followed by 1 capsule as needed. As shown in Table 4 (and FIG. 4), a significant difference in results was obtained between the two groups ([…]).

[6] = system: persons suffering from diagnosed peptic ulcers; experiment: Treatment regimen in persons with diagnosed peptic ulcers; format: in vivo, human; conditions: 1,000 mg dose regimen, had to discontinue
Text: The present invention is particularly useful in alleviating the severity and frequency of gastrointestinal disorders. […] As used herein, “gastrointestinal disorder” shall mean mild/moderate heartburn, stomach acid indigestion, and severe heartburn/GERD.

C=C(C)[C@H]1CC=C(C)CC1 [limonene]
severity and frequency of heartburn symptoms [1]: alleviated permanently | side effects such as diarrhea and headache [2]: significantly reduced certain side effects | effect on gastric acid [3]: neutralizing effect on gastric acid

C=C(C)[C@H]1CC=C(C)CC1 [d-limonene]
% of participants (every day regimen) with symptom rating = 1-2 ([4]; Day 2): 14% | % of participants (every other day regimen) with symptom rating = 1-2 ([4]; Day 2): 42% | % of participants (every day regimen) with symptom rating = 1-2 ([4]; Day 4): 29% | % of participants (every other day regimen) with symptom rating = 1-2 ([4]; Day 4): 42% | % of all participants with symptom rating = 1-2 ([4]; Day 4): 32% | percentage of participants with severity and frequency symptom ratings of 1-2 ([4]; Day 4, mild/moderate heartburn group): 55% | percentage of participants with severity and frequency symptom ratings of 1-2 ([4]; Day 4, severe heartburn/GERD group): 0% | % of participants (every day regimen) with symptom rating = 1-2 ([4]; Day 7): 57% | % of participants (every other day regimen) with symptom rating = 1-2 ([4]; Day 7): 67% | % of all participants with symptom rating = 1-2 ([4]; Day 7): 63% | percentage of participants with severity and frequency symptom ratings of 1-2 ([4]; Day 7, mild/moderate heartburn group): 82% | percentage of participants with severity and frequency symptom ratings of 1-2 ([4]; Day 7, severe heartburn/GERD group): 38% | % of participants (every day regimen) with symptom rating = 1-2 ([4]; Day 9): 71% | % of participants (every other day regimen) with symptom rating = 1-2 ([4]; Day 9): 75% | % of all participants with symptom rating = 1-2 ([4]; Day 9): 74% | percentage of participants with severity and frequency symptom ratings of 1-2 ([4]; Day 9, mild/moderate heartburn group): 82% | percentage of participants with severity and frequency symptom ratings of 1-2 ([4]; Day 9, severe heartburn/GERD group): 38% | percentage of participants with severity and frequency symptom ratings of 1-2 ([4]; Day 11, mild/moderate heartburn group): 91% | percentage of participants with severity and frequency symptom ratings of 1-2 ([4]; Day 11, severe heartburn/GERD group): 72% | % of participants (every day regimen) with symptom rating = 1-2 ([4]; Day 14): 86% | % of all participants with symptom rating = 1-2 ([4]; Day 14): 89% | percentage of participants with severity and frequency symptom ratings of 1-2 ([4]; Day 15, mild/moderate heartburn group): 91% | percentage of participants with severity and frequency symptom ratings of 1-2 ([4]; Day 15, severe heartburn/GERD group): 88% | percentage of participants achieving complete relief of symptoms (rating of 1) ([4]; day 2): about 20% | percentage of participants achieving complete relief of symptoms (rating of 1) ([4]; day 14): 79% | Product vs. Placebo result (percentage of participants, rating criterion not given) ([5]; Day 4): 29% | Product vs. Placebo result (percentage of participants, rating criterion not given) ([5]; Day 7): 29% | Product vs. Placebo result (percentage of participants, rating criterion not given) ([5]; Day 9): 71% | Product vs. Placebo result (percentage of participants, rating criterion not given) ([5]; Day 14): 86% | effect on severity of gastrointestinal symptoms in ulcer sufferers [6]: increase in the severity of gastrointestinal symptoms
